The values below come from US11192877B2, “3-(5-hydroxy-1-oxoisoindolin-2-yl)piperidine-2,6-dione derivatives and uses thereof” (Novartis AG, priority 2018, dated 2021).

Where two headings read alike, the source gives them in different places.

The target in the assay is IKZF2 (Helios) (Homo sapiens, UniProt Q96SW2+Q9UKS7). In words: Prolabel quantification of IKZF2 protein levels in 293GT cells. Format: cell-based. The note with it: 24 h, read-out: IKZF2 % protein reduction at 10 μM, 24 h.
Where [1] appears, read: Pro-label assay, 293GT cells, 10 μM.

Sequence of IKZF2 (Helios) (Q9UKS7 whole entry): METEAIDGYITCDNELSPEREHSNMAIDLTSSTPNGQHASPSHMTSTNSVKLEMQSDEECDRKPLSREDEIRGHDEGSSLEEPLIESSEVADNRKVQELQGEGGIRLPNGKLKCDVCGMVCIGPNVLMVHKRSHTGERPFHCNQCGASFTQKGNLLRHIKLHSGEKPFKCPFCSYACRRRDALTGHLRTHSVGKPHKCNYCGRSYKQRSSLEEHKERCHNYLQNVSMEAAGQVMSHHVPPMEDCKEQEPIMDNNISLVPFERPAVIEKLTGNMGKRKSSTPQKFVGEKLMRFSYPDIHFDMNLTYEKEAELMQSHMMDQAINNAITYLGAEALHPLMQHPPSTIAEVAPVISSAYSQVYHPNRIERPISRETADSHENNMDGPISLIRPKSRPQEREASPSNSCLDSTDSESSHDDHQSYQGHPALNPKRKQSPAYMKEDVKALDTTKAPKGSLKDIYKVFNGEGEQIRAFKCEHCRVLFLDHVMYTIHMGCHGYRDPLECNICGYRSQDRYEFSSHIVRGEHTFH
Sequence of IKZF2 (Helios) (Q96SW2 whole entry): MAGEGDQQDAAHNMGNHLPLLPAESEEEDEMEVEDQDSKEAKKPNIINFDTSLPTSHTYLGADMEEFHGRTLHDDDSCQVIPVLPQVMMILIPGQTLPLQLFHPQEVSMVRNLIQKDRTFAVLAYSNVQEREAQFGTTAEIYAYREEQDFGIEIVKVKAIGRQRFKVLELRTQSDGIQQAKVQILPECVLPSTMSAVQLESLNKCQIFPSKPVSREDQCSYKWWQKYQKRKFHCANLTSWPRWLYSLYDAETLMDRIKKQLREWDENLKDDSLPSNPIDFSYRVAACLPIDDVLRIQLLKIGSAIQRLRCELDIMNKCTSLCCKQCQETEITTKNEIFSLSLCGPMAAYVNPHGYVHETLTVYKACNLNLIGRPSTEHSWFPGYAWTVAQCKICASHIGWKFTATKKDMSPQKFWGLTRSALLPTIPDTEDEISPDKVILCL
Sequence of IKZF2 (Helios) (Q16531 whole entry partner): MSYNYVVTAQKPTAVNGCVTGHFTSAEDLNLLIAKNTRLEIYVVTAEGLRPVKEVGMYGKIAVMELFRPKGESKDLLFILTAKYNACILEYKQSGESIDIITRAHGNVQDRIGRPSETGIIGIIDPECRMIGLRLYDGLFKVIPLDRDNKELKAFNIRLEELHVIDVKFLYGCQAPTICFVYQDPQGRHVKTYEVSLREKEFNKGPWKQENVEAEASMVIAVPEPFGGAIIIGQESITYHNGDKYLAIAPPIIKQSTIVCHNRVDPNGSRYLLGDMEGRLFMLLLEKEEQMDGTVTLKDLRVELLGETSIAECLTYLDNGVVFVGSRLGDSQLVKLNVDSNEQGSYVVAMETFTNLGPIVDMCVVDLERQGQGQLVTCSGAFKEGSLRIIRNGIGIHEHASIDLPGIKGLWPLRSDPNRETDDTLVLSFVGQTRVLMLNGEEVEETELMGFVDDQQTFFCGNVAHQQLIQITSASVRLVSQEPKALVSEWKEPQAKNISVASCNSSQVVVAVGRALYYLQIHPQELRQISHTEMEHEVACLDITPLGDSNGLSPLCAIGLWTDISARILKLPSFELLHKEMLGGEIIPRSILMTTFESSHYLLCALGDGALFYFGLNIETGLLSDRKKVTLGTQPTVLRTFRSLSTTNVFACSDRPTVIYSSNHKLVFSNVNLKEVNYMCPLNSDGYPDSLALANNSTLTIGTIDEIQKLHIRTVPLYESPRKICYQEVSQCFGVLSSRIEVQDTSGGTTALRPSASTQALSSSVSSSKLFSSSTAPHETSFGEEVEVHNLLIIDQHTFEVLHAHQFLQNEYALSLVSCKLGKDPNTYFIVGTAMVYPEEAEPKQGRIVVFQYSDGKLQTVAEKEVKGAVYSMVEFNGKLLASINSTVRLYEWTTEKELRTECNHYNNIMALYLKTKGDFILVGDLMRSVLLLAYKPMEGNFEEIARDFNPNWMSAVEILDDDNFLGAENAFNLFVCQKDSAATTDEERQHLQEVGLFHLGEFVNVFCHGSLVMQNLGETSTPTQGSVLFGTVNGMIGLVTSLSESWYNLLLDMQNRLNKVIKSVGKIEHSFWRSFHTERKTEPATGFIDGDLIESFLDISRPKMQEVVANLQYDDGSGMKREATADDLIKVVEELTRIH

For `CC1(C#N)CC(CNC2CCCCC2Oc2ccc3c(c2)CN(C2CCC(=O)NC2=O)C3=O)C1` [I-95, (1R,3s)-3-((((1S,2S)-2-((2-(2,6-dioxopiperidin-3-yl)-1-oxoisoindolin-5-yl)oxy)cyclohexyl)amino)methyl)-1-methylcyclobutane-1-carbonitrile], the IKZF2 % protein reduction at 10 µM under setting [1] turned out to be 84%.

`O=C1CCC(N2Cc3cc(O[C@H]4CCC[C@@H]4N4CCC(O)C4)ccc3C2=O)C(=O)N1` (stereo partly drawn) [I-139, 3-(5-(((1S,2S)-2-(3-hydroxypyrrolidin-1-yl)cyclopentyl)oxy)-1-oxoisoindolin-2-yl)piperidine-2,6-dione]: the IKZF2 % protein reduction at 10 µM under setting [1] came to 83%.

As for `CCN[C@H]1c2ccccc2C[C@@H]1Oc1ccc2c(c1)CN(C1CCC(=O)NC1=O)C2=O` (stereo partly drawn) [I-198, 3-(5-(((1S,2S)-1-(ethylamino)-2,3-dihydro-1H-inden-2-yl)oxy)-1-oxoisoindolin-2-yl)piperidine-2,6-dione], the IKZF2 % protein reduction at 10 µM came out at 67%.

Regarding `O=C1CCC(N2Cc3cc(O[C@H]4CCCC[C@@H]4N4CC(Oc5cccnc5)C4)ccc3C2=O)C(=O)N1` (stereo partly drawn) [I-135, 3-(1-oxo-5-(((1S,2S)-2-(3-(pyridin-3-yloxy)azetidin-1-yl)cyclohexyl)oxy)isoindolin-2-yl)piperidine-2,6-dione], the IKZF2 % protein reduction at 10 µM under setting [1] came out at 92%.

With `O=C1CCC(N2Cc3cc(O[C@H]4CCCCC[C@@H]4NCC4CC(F)(F)C4)ccc3C2=O)C(=O)N1` (stereo partly drawn) [I-69, 3-(5-(((1S,2S)-2-(((3,3-difluorocyclobutyl)methyl)amino)cycloheptyl)oxy)-1-oxoisoindolin-2-yl)piperidine-2,6-dione], the IKZF2 % protein reduction at 10 µM under setting [1] was found to be 84%.

`O=C1CCC(N2Cc3cc(O[C@H]4CCCC[C@@H]4N4CC(OCC(F)F)C4)ccc3C2=O)C(=O)N1` (stereo partly drawn) [I-50, 3-(5-(((1S,2S)-2-(3-(2,2-difluoroethoxy)azetidin-1-yl)cyclohexyl)oxy)-1-oxoisoindolin-2-yl)piperidine-2,6-dione]: under setting [1], the IKZF2 % protein reduction at 10 µM worked out at 85%.

For the compound `CO[C@H]1CC[C@H](CN[C@H]2CCC[C@@H]2Oc2ccc3c(c2)CN(C2CCC(=O)NC2=O)C3=O)CC1` (stereo partly drawn) [I-159, 3-(5-(((1S,2S)-2-((((1r,4S)-4-methoxycyclohexyl)methyl)amino)cyclopentyl)oxy)-1-oxoisoindolin-2-yl)piperidine-2,6-dione], the IKZF2 % protein reduction at 10 µM under setting [1] came out at 75%.

`CC1(CN[C@H]2CCCCC[C@@H]2Oc2ccc3c(c2)CN(C2CCC(=O)NC2=O)C3=O)COC1` (stereo partly drawn) [I-66, 3-(5-(((1S,2S)-2-(((3-methyloxetan-3-yl)methyl)amino)cycloheptyl)oxy)-1-oxoisoindolin-2-yl)piperidine-2,6-dione]: the IKZF2 % protein reduction at 10 µM under setting [1] was found to be 81%.

In the case of `COC1CC(CNC2CCCCC2Oc2ccc3c(c2)CN(C2CCC(=O)NC2=O)C3=O)C1` (single isomer, unassigned) [I-99], the IKZF2 % protein reduction at 10 µM under setting [1] stood at 86%.

Regarding `O=C1CCC(N2Cc3cc(O[C@H]4CCC[C@@H]4N4CCC(F)CC4)ccc3C2=O)C(=O)N1` (stereo partly drawn) [I-166, 3-(5-(((1S,2S)-2-(4-fluoropiperidin-1-yl)cyclopentyl)oxy)-1-oxoisoindolin-2-yl)piperidine-2,6-dione], the IKZF2 % protein reduction at 10 µM came out at 81%.

On to `CCN(CC1COC1)[C@H]1CCC[C@@H]1Oc1ccc2c(c1)CN(C1CCC(=O)NC1=O)C2=O` (stereo partly drawn) [I-155, 3-(5-(((1S,2S)-2-(ethyl(oxetan-3-ylmethyl)amino)cyclopentyl)oxy)-1-oxoisoindolin-2-yl)piperidine-2,6-dione], for which, under setting [1], the IKZF2 % protein reduction at 10 µM stood at 65%.

With `N#Cc1cccc(CN[C@H]2CCCC[C@@H]2Oc2ccc3c(c2)CN(C2CCC(=O)NC2=O)C3=O)c1` (stereo partly drawn) [I-132, 3-((((1S,2S)-2-((2-(2,6-dioxopiperidin-3-yl)-1-oxoisoindolin-5-yl)oxy)cyclohexyl)amino)methyl)benzonitrile], the IKZF2 % protein reduction at 10 µM under setting [1] is 80%.

For `O=C1CCC(N2Cc3cc(O[C@H]4CCCC[C@@H]4N4CCC5(CC4)COC5)ccc3C2=O)C(=O)N1` (stereo partly drawn) [I-105, 3-(5-(((1S,2S)-2-(2-oxa-7-azaspiro[3.5]nonan-7-yl)cyclohexyl)oxy)-1-oxoisoindolin-2-yl)piperidine-2,6-dione], the IKZF2 % protein reduction at 10 µM under setting [1] came out at 52%.
